# The NIST ThermoML archive (doi:10.1016/j.jct.2010.11.006)
# Numbers after ± are expanded uncertainties.
# Columns and labels:
# [1] = Crystal; for Normal melting temperature: DTA
# [2] = molar enthalpy of vaporization or sublimation; settings: 298.15 K; Crystal; Calver Calorimeter- drop method
# [3] = Molar enthalpy of transition or fusion; settings: Crystal; DSC
Normal melting temperature [1] [°C],molar enthalpy [2] [kcal/mol],Molar enthalpy of transition or fusion [3] [kcal/mol],"molar enthalpy of sublimation ([1]; 298.15 K, Calver Calorimeter- drop method) [kcal/mol]",Compound
155.64 ± 0.39,26.9 ± 1.2,4.99 ± 0.117,,"O=c1[nH]sc2ccccc12 [1,2-benzisothiazol-3(2H)-one]"
178.24 ± 0.39,,6.04 ± 0.143,28.2 ± 1.82,"O=C1CSc2ccccc2N1 [2H-1,4-benzothiazin-3(4H)-one]"
